Several values for one entry are separate records, joined by “and”; a condition that tells them apart may be missing. Identical values can stand only once.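 How tested: cells in 96-well plates exposed to compound for 48 hours at five concentrations. GI50 marks 50% less growth. TGI is the concentration that stops growth completely.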
What was measured:
Assay in all cases: NCI-60 cell line screen, 48 h
DMS 114 small cell lung = tested on: DMS 114 small cell lung
HL-60(TB) leukemia = tested on: HL-60(TB) leukemia
HOP-92 NSCLC = tested on: HOP-92 NSCLC
OVCAR-5 ovarian = tested on: OVCAR-5 ovarian
SF-539 CNS = tested on: SF-539 CNS
TK-10 renal = tested on: TK-10 renal
DMS 273 small cell lung = tested on: DMS 273 small cell lung
DU-145 prostate = tested on: DU-145 prostate
KM20L2 colon = tested on: KM20L2 colon
LXFL 529 NSCLC = tested on: LXFL 529 NSCLC

SMILES	GI50 (DMS 114 small cell lung)	TGI (DMS 114 small cell lung)	GI50 (HL-60(TB) leukemia)	TGI (HL-60(TB) leukemia)	GI50 (HOP-92 NSCLC)	TGI (HOP-92 NSCLC)	GI50 (OVCAR-5 ovarian)	TGI (OVCAR-5 ovarian)	GI50 (SF-539 CNS)	TGI (SF-539 CNS)	GI50 (TK-10 renal)	TGI (TK-10 renal)	TGI (DMS 273 small cell lung)	GI50 (DU-145 prostate)	TGI (DU-145 prostate)	TGI (KM20L2 colon)	TGI (LXFL 529 NSCLC)	GI50 (DMS 273 small cell lung)	GI50 (KM20L2 colon)	GI50 (LXFL 529 NSCLC)
O=S(=O)([O-])c1ccc(N=Cc2ccccc2[O-])cc1.O=S(=O)([O-])c1ccc(N=Cc2ccccc2[O-])cc1.[Co+2]	28.3 µM	> 100 µM	40.1 µM	> 100 µM	52.1 µM	> 100 µM	> 100 µM	> 100 µM	84 µM	> 100 µM	> 100 µM	> 100 µM	–	–	–	–	–	–	–	–
CCN(CC)CCCC(C)Nc1ccnc2cc(Cl)ccc12 (centres undefined)	–	56.4 µM	36.1 µM	> 100 µM and 34.2 µM	52 µM	> 100 µM and 44.9 µM	–	> 100 µM	–	35.7 µM and 32.5 µM	42.1 µM	> 100 µM	87 µM	> 100 µM	> 100 µM	44.5 µM	> 100 µM	–	–	–
COC(=O)c1ccccc1N(C(=O)c1ccccc1)c1ccccc1C	–	> 100 µM	–	43.1 µM	–	–	–	> 100 µM	–	–	–	> 100 µM	> 100 µM	–	–	> 100 µM	> 100 µM	–	–	–
O=C(O)C[C@@H](Cl)[C@H](NC(=O)OCc1ccccc1)C(=O)O	–	> 100 µM	–	> 100 µM	–	> 100 µM	–	> 100 µM	–	> 100 µM	–	> 100 µM	> 100 µM	–	–	> 100 µM	> 100 µM	–	–	–
CC(CC(=O)N1C(=O)C(C)(C)[C@@H](O)[C@H]1CC(C)C(Cl)(Cl)Cl)C(Cl)(Cl)Cl (some centres undefined)	–	> 100 µM	–	> 100 µM	–	> 100 µM	–	–	–	> 100 µM	–	> 100 µM	> 100 µM	–	–	> 100 µM	> 100 µM	–	–	–
C=C(CO)CC(O)c1cc(OC)ccc1OC (centres undefined)	–	–	–	> 100 µM	–	> 100 µM	–	> 100 µM	–	> 100 µM	–	> 100 µM	> 100 µM	–	–	–	> 100 µM	–	–	–
N#CC(/C(CCC(=O)Nc1ccc(Cl)cc1)=N/NC(=O)c1cc2ccccc2cc1O)c1ccccc1 (centres undefined)	–	87.7 µM	–	33 µM	–	> 100 µM	–	60.6 µM	–	–	–	> 100 µM	–	–	–	> 100 µM	> 100 µM	–	–	–
CCOC(=O)C(=O)Nc1nc2c(OCC)cccc2s1	–	> 100 µM	–	> 100 µM	–	> 100 µM	–	> 100 µM	–	> 100 µM	–	> 100 µM	> 100 µM	–	–	> 100 µM	> 100 µM	–	–	–
CC(C)C12Cc3c(ccc4ccccc34)OC1(C)Oc1ccc3ccccc3c1C2 (centres undefined)	–	> 100 µM	–	–	–	> 100 µM	–	> 100 µM	–	> 100 µM	–	> 100 µM	> 100 µM	–	–	> 100 µM	> 100 µM	–	–	–
Cc1n[nH]c(=S)n(C)c1=S	–	> 100 µM	–	–	–	> 100 µM	–	> 100 µM	–	> 100 µM	–	> 100 µM	> 100 µM	–	–	> 100 µM	> 100 µM	–	–	–
CSCS(=O)C[C@H](CO)NC(=O)/C=C/c1c(C)[nH]c(=O)[nH]c1=O (some centres undefined)	1.7 µM	6.61 µM and 3.1 µM	2.23 µM	4.96 µM and 3.44 µM	0.815 µM	4.05 µM and 0.778 µM	2.7 µM	9.91 µM and 7.24 µM	1.2 µM	4.1 µM and 2.66 µM	–	> 29.5 µM	28.1 µM and 4.54 µM	–	–	12 µM and 4.35 µM	7.65 µM	3.38 µM	2.07 µM	–
N/N=C1\C(=O)N(Cc2ccccc2)C(=O)C1C(=O)NCc1ccccc1 (centres undefined)	–	> 100 µM	–	> 100 µM	–	> 100 µM	–	> 100 µM	–	> 100 µM	–	> 100 µM	–	–	–	> 100 µM	> 100 µM	–	–	–
Cc1c2ccn(O)cc2c(C)c2c1nc1ccccc12	–	47.1 µM	–	38.3 µM	–	38.5 µM	–	53.5 µM	–	11 µM	–	> 66.1 µM	31.1 µM	–	> 100 µM	> 100 µM	> 100 µM	–	–	–
N.N.N.N.N.NC(=O)[O-].[Co+3].[I-]	–	–	–	–	> 100 µM	> 100 µM	> 100 µM	> 100 µM	> 100 µM	> 100 µM	> 100 µM	> 100 µM	> 100 µM	–	–	> 100 µM	> 100 µM	> 100 µM	> 100 µM	> 100 µM
CC(C)N(O)C(=N)c1ccccc1	–	> 100 µM	–	> 100 µM	–	> 100 µM	–	> 100 µM	–	> 100 µM	–	> 100 µM	–	–	–	> 100 µM	> 100 µM	–	–	–
O=C(O)/C(Cl)=C(\Cl)C(=O)c1ccccc1	–	> 100 µM	–	> 100 µM	–	> 100 µM	–	> 100 µM	–	> 100 µM	–	> 100 µM	> 100 µM	–	–	> 100 µM	> 100 µM	–	–	–
O=C(/C=C\c1cccc2ccccc12)c1ccc(F)cc1	–	29.5 µM	–	53 µM	–	39.8 µM	–	33.2 µM	–	41.4 µM	–	37.4 µM	29.4 µM	–	–	31.1 µM	30.8 µM	–	–	–
CCCCCOCC(O)CO (centres undefined)	–	> 100 µM	–	–	–	> 100 µM	–	> 100 µM	–	> 100 µM	–	> 100 µM	> 100 µM	–	–	> 100 µM	–	–	–	–
Cc1ccc(-c2nc3ccccc3c(=O)n2NCC2(O)OCC(O)C(O)C2O)cc1 (centres undefined)	–	> 100 µM	–	> 100 µM	–	–	–	> 100 µM	–	> 100 µM	–	–	> 100 µM	–	–	> 100 µM	> 100 µM	–	–	–

SMILES	GI50 (DMS 114 small cell lung)	TGI (DMS 114 small cell lung)	GI50 (HL-60(TB) leukemia)	TGI (HL-60(TB) leukemia)	GI50 (HOP-92 NSCLC)	TGI (HOP-92 NSCLC)	GI50 (OVCAR-5 ovarian)	TGI (OVCAR-5 ovarian)	GI50 (SF-539 CNS)	TGI (SF-539 CNS)	GI50 (TK-10 renal)	TGI (TK-10 renal)	TGI (DMS 273 small cell lung)	GI50 (DU-145 prostate)	TGI (DU-145 prostate)	TGI (KM20L2 colon)	TGI (LXFL 529 NSCLC)	GI50 (DMS 273 small cell lung)	GI50 (KM20L2 colon)	GI50 (LXFL 529 NSCLC)
Cc1cccc(-n2c(N)c(-c3nc4ccccc4[nH]3)sc2=S)c1	–	57.3 µM	–	64 µM	–	–	–	> 100 µM	–	37 µM	–	68.5 µM	41.7 µM	–	–	–	53.4 µM	–	–	–
CN1CN(C2OC(CO)C(O)C2O)c2nc(N)[nH]c(=O)c21 (centres undefined)	–	> 100 µM	–	> 100 µM	–	> 100 µM	–	> 100 µM	–	> 100 µM	–	> 100 µM	> 100 µM	–	–	> 100 µM	> 100 µM	–	–	–
CCC(=O)N1C(=O)OCC1C(C)C (centres undefined)	–	> 100 µM	–	> 100 µM	–	> 100 µM	–	> 100 µM	–	> 100 µM	–	> 100 µM	> 100 µM	–	–	> 100 µM	> 100 µM	–	–	–
O=C/C1=C/C2=Cc3ccccc3C=C(/C=C(/C=O)C1)C2	–	> 100 µM	–	> 100 µM	–	87.9 µM	–	> 100 µM	–	> 100 µM	–	> 100 µM	> 100 µM	–	–	> 100 µM	> 100 µM	–	–	–
N#CC(C(=O)C(=O)Nc1ccccc1)c1ccccc1 (centres undefined)	–	–	–	> 100 µM	–	> 100 µM	–	–	–	> 100 µM	–	> 100 µM	> 100 µM	–	–	> 100 µM	> 100 µM	–	–	–
CCC[CH2][Sn]([CH2]CCC)([O]c1cccc2cccnc12)[O]c1cccc2cccnc12	0.135 µM	0.306 µM	–	–	–	–	–	–	0.219 µM	0.514 µM	0.492 µM	1.66 µM	0.425 µM	–	–	2.07 µM	0.211 µM	0.197 µM	0.755 µM	0.063 µM
COc1cc(OC)c(C(=O)c2cccs2)cc1N	–	> 100 µM	–	–	–	–	–	> 100 µM	–	> 100 µM	–	> 100 µM	> 100 µM	–	–	> 100 µM	> 100 µM	–	–	–
CCCCN1CCCC[C@@H]1C(=O)N[C@H](C(=O)N(C)[C@H](C[C@@H](OC(C)=O)c1nc(C(=O)NC2CCC(C(=O)OC)CC2)cs1)C(C)C)C(C)C (some centres undefined)	–	–	0.732 µM	2.17 µM	1.13 µM	> 25 µM	4.75 µM	> 25 µM	1.49 µM	11.8 µM	> 25 µM	> 25 µM	–	1.31 µM	> 25 µM	–	–	–	–	–
C[C@]12CCC(=O)C(OC(=O)c3ccc([N+](=O)[O-])cc3)=C1CCC2=O	–	> 100 µM	–	> 100 µM	–	> 100 µM	–	> 100 µM	–	> 100 µM	–	> 100 µM	> 100 µM	–	–	> 100 µM	> 100 µM	–	–	–
O=C1C(=O)N(c2ccc(Cl)cc2)C(=O)C(=O)C1c1nc2ccccc2o1	–	> 100 µM	–	> 100 µM	–	> 100 µM	–	> 100 µM	–	> 100 µM	–	> 100 µM	> 100 µM	–	–	> 100 µM	> 100 µM	–	–	–
N#Cc1ccc(Cc2ccccn2)cc1Cl	–	> 100 µM	–	> 100 µM	–	> 100 µM	–	> 100 µM	–	> 100 µM	–	> 100 µM	> 100 µM	–	–	–	> 100 µM	–	–	–
O=C(Nc1cccc2c1C(=O)c1c(NC(=O)c3ccccc3)ccc(Nc3cccc4c3C(=O)c3ccccc3C4=O)c1C2=O)c1ccccc1	–	> 100 µM	–	> 100 µM	–	–	–	–	–	> 100 µM	–	> 100 µM	> 100 µM	–	–	> 100 µM	> 100 µM	–	–	–
COc1cc(/C=C(\NC(=O)c2ccccc2)c2nc3ccc4c(c3[nH]2)C(=O)c2ccccc2C4=O)cc(OC)c1OC	–	> 100 µM	–	–	–	> 100 µM	–	> 100 µM	–	> 100 µM	–	> 100 µM	> 100 µM	–	–	> 100 µM	> 100 µM	–	–	–
COC(OC)c1cc2c(cc1C=O)OCO2	–	> 100 µM	–	> 100 µM	–	> 100 µM	–	> 100 µM	–	> 100 µM	–	> 100 µM	> 100 µM	–	–	> 100 µM	–	–	–	–
CN(C)CCN1C(=O)c2cccc3cc([N+](=O)[O-])cc(c23)C1=O	–	0.811 µM	–	> 45.3 µM	–	1.12 µM	–	5.24 µM	–	1.32 µM	–	–	0.557 µM	–	> 100 µM	5.63 µM	2.8 µM	–	–	–
COc1ccc(/C(=N\NC(=O)NN)C(c2ccc(OC)cc2)C2(O)C(=O)Nc3c(Cl)cc(Cl)cc32)cc1 (centres undefined)	–	> 100 µM	–	> 100 µM	–	> 100 µM	–	> 100 µM	–	–	–	> 100 µM	–	–	–	> 100 µM	> 100 µM	–	–	–
Oc1ccc(Nc2ccc3ccccc3c2)cc1	–	–	2.66 µM	21.3 µM	10.2 µM	32.6 µM	22.7 µM	78.3 µM	3.38 µM	18.6 µM	4.22 µM	42.3 µM	–	4.87 µM	19.2 µM	–	–	–	–	–
CO[C@@H]1C=C[C@@]23c4cc5c(cc4CN(C[C@@H]2O)[C@H]3C1)OCO5	–	> 100 µM	–	39.2 µM	–	80.6 µM	–	> 100 µM	–	> 100 µM	–	> 100 µM	–	–	–	> 100 µM	> 100 µM	–	–	–
